# Assay results from patent US7271158B2, “Treatment of rumen acidosis with α-amylase inhibitors” (Pfizer Inc., priority 2000, dated 2007).
# Experiments:
# Salm. enteritidis = assay: Minimum inhibitory concentrations in aerobes (agar dilution)
# [1] = tested on: chronic rumen acidosis induced in fistulated cattle; assay: In vivo testing in fistulated cattle (induced chronic rumen acidosis); parameters: species or system Hereford×Friesian steers; settings: 4.0 g/trt through fistula
# Source text: In Vivo Testing in Fistulated Cattle Objective: To determine the effect of the agent for testing, in this case acarbose, on chronic rumen acidosis induced in fistulated cattle. A rumen pH profile representative of chronic acidosis was induced by stepwise increase in the level of concentrate feeding of a specified diet and a reduction in the roughage offered. This was followed by treatment of each animal with acarbose, administered via a permanent rumen fistula, to assess its ability to normalise rumen pH. Experimental Animals: Six fistulated Hereford×Friesian steers, weighing 170-230 kgs (supplied by […] Calves Ltd. […], Ceredigion) Treatment: Glucobay® 100. Acarbose 100 mgs per tablet. Management: The cattle were fed GH651 cattle high cereal beef pellets (variable amount) with barley straw (variable amount) divided over two equal feeds, given at around 08.00 hr and 14.30 hr each day. Precise feeding times were recorded. Water was available ad-lib. Cattle were individually housed in pens (9 square meters per pen) in a building environmentally controlled to 16° C. [table] While chronic acidosis was being induced, manual pH measurements were taken approximately 5 and 8 hours post-morning feed. Rumen fluid samples were taken for VFA and lactate analysis. […] First Sense Recorder). […] Rumen fluid samples (10 ml) were taken twice daily for measurement of VFA levels, molar ratios and lactate levels. These were collected (by manually removing a sample of rumen content with a small stainless […], filtering and transferring to a 10 ml polypropylene vial) just before acarbose was added to the rumen at both dosing times. The pH probes were removed for cleaning and recalibration immediately pre-morning feed. Results: The daily pH curves were used to calculate the period that rumen pH was below pH 5.5, and therefore indicative of chronic acidosis.
# E. faecalis = assay: Minimum inhibitory concentrations in aerobes (agar dilution)
smiles,measurement,setting,value
"CC1OC(OC2C(CO)OC(OC3C(CO)OC(O)C(O)C3O)C(O)C2O)C(O)C(O)C1NC1C=C(CO)C(O)C(O)C1O (stereo not drawn) [Acarbose, acarbose]",MIC,Salm. enteritidis; Salm. enteritidis B1218,>128 µg/mL
same,MIC,Salm. enteritidis; Salm. enteritidis B1227,>128 µg/mL
same,MIC,Salm. enteritidis; Salm. enteritidis B1231,>128 µg/mL
same,MIC,Salm. enteritidis; Salm. enteritidis B1232,>128 µg/mL
same,MIC,Salm. enteritidis; Salm. enteritidis B1233,>128 µg/mL
same,MIC,Salm. enteritidis; Salm. enteritidis B1235,>128 µg/mL
same,MIC,Salm. enteritidis; Salm. enteritidis B1240,>128 µg/mL
same,MIC,"Salm. enteritidis; Salmonella enterica, ENTERITIDIS",> 128 µg/mL
same,total VFA concentrations in rumen fluid,"[1]; 13:00 samples, treatment vs control phase",little difference
same,VFA concentration in rumen fluid,"[1]; 14:00 samples, during the treatment period",fell
same,percentage of propionate in rumen fluid,"[1]; all sampling times, during the treatment period",lower
same,MIC,E. faecalis; E. faecalis 1.1.16,>128 µg/mL
same,MIC,E. faecalis; E. faecalis 1.1.4,>128 µg/mL
same,MIC,E. faecalis; E. faecalis 1.10.4,>128 µg/mL
same,MIC,E. faecalis; E. faecalis 1.3.13,>128 µg/mL
same,MIC,E. faecalis; E. faecalis 1.4.12,>128 µg/mL
same,MIC,E. faecalis; E. faecalis 1.6.6,>128 µg/mL
same,MIC,E. faecalis; E. faecalis 1.9.5,>128 µg/mL
same,MIC,E. faecalis; E. faecalis 28.5.7,>128 µg/mL
same,MIC,E. faecalis; E. faecalis 28.6.9,>128 µg/mL
same,MIC,E. faecalis; Enterococcus faecalis,> 128 µg/mL
